Measured values from patent publication US20070112018A1, “Treatment of peripheral arterial occlusive disease” (priority 2005, published 2007).

Experiments:
[1] = in vivo; cited from earlier work
[2] = male, human, in vivo
Experimental: In another study, three dose levels of rifalazil were administered for the treatment of non-gonococcal urethritis in 170 male patients. Doses used were in this study were single-doses of 2.5, 12.5 mg and 25 mg. Males were between 18-45 years of age with signs or symptoms of urethritis, including urethral discharge.

[3] = 300 mg, 3 days, 2 years of follow-up; cited from earlier work
C. pneumoniae [4] = assay: Rabbit model of atherosclerosis accelerated by C. pneumoniae infection, cholesterol diet; details: C. pneumoniae-infected rabbits; rifalazil 5 mg/kg or azithromycin 30 mg/kg PO daily 1 week then twice weekly 6 weeks; 19 weeks after beginning treatment
Experimental: Thirty received three separate C. pneumoniae inoculations performed at 3-week intervals. Similarly, 15 control rabbits were intranasally inoculated with 1 mL of normal saline under the same conditions.
Nineteen weeks after beginning antibiotic treatment, the rabbits were euthanized. After euthanasia, hearts were examined histologically and by immunofluorescence. Animal serum samples were also examined for seropositivity to the infecting organism.

C. pneumoniae [5] = details: cited from earlier work

SMILES	t1/2 [1]	incidence of AEs considered possibly related to study drug [2]	incidence of clinically significant laboratory abnormalities [2]	morbidity or mortality in PAOD patients [3]	Plaque Area Stenosis (%) (C. pneumoniae [4])	prevention of progression of lower limb atherosclerosis (C. pneumoniae [5]; daily for 28 days, C. pneumoniae seropositive men, almost 3 years)	number of invasive revascularization procedures (C. pneumoniae [5]; daily for 28 days)	soft plaque components in carotid arteries (C. pneumoniae [5]; over a 6-month period)
CN[C@H]1C(=O)N[C@@H]2Cc3ccc(cc3)Oc3cc4cc(c3O[C@@H]3O[C@H](C(=O)O)[C@@H](O)[C@H](O)[C@H]3NC(=O)CCCCCCCCC(C)C)Oc3ccc(cc3Cl)[C@@H](O)[C@@H]3NC(=O)[C@H](NC(=O)[C@@H]4NC(=O)[C@@H](NC2=O)c2cc(cc(O)c2Cl)Oc2cc1ccc2O)c1ccc(O)c(c1)-c1c(O[C@H]2O[C@H](CO)[C@@H](O)[C@H](O)[C@@H]2O)cc(O)cc1[C@@H](C(=O)NCCCN(C)C)NC3=O [Dalbavancin]	approximately 180 hours	–	–	–	–	–	–	–
CC[C@H]1OC(=O)[C@H](C)[C@@H](O[C@H]2C[C@@](C)(OC)[C@@H](O)[C@H](C)O2)[C@H](C)[C@@H](O[C@@H]2O[C@H](C)C[C@H](N(C)C)[C@H]2O)[C@](C)(O)C[C@@H](C)CN(C)[C@H](C)[C@@H](O)[C@]1(C)O [azithromycin]	65 h	24%	21%	no significant reduction of morbidity or mortality	30.2%	–	–	–
CC[C@H]1OC(=O)[C@H](C)[C@@H](O[C@H]2C[C@@](C)(OC)[C@@H](O)[C@H](C)O2)[C@H](C)[C@@H](O[C@@H]2O[C@H](C)C[C@H](N(C)C)[C@H]2O)[C@](C)(O)C[C@@H](C)/C(=N\OCOCCOC)[C@H](C)[C@@H](O)[C@]1(C)O [roxithromycin]	–	–	–	–	–	statistically significant benefit	reduced the number of invasive revascularization procedures	statistically significant reduction of soft plaque components
